We go through one sequence from publication PMC4326127, “Collagen Inhibitory Peptide R1R2 Mediates Vascular Remodeling by Decreasing Inflammation and Smooth Muscle Cell Activation” (PLoS ONE, 2015).

Entries after “also recorded” stand apart in the source; their conditions may differ.

One assay concerns ICAM-1. The experiment in a line: Western blot of ICAM-1 in TNF-α-treated HUVECs. The class given is cell-based, human. To be noted: in words. As to the method: Human umbilical vein endothelial cells (HUVECs) and A7r5 SMCs were provided by Resource Center (SB3, NSC 100-2325-B-080-001), National Research Program for Biopharmaceuticals (Hsinchu, Taiwan). HUVECs were maintained in M199 (Life Technologies, Carlsbad, CA) with 25U/ml heparin (Sigma-Aldrich, St. Louis, MO), 10% fetal bovine serum (FBS) and endothelial cell growth supplement (ECGS; Millipore, Billerica, MA). A7r5 SMCs were grown in Dulbecco’s Modified Eagle’s Medium (DMEM) containing high glucose, supplemented with 10% fetal bovine serum. Human U937 cells were grown in RPMI1640 with 10% FBS.
Tissues or cells were homogenized with RIPA buffer supplemented with protease inhibitor cocktail (Sigma-Aldrich, St. Louis, MO). Cell lysates were spun at 12,000 rpm for 15 min at 4°C, then electrophoresed on 10% SDS-PAGE gel and transferred to nitrocellulose. […]
Fig 8 R1R2 decreases TNF-α-induced monocyte U937 cell adhesion to HUVECs and transendothelial migration and reduces ICAM-1 and VCAM-1 levels. […] Calcein-AM labeled U937 monocyte adhesion to TNF-α HUVECs was quantitated by fluorescence intensity. Microscopic images showing U937 monocytes adhering to HUVECs as assessed by in vitro adhesion assay. […]

The test system of the next assay is collagen. The experiment in a line: Hydroxyproline assay of carotid collagen content. The class given is in vivo, FVB/NJ (FVB) mice. Particulars: 14 days post-ligation; three carotid arteries pooled per group; colorimetric chloramine T; mean ± SEM, n = 3. The protocol: Animals were anesthetized with isoflurane inhalation. The left common carotid artery was exposed, dissected free from the surrounding connective tissue and completely ligated with 6-0 silk suture just proximal to the carotid bifurcation. […] 4–10 mice were included in each experimental group.
After reconstituting with water, samples were measured using a colorimetric chloramine T assay. Three independent experiments were performed for statistical analysis.
(§1) For in vivo experiments, the data are shown as the mean ± SEM. For in vitro experiments, the data shown are the means ± SD of a representative experiment, at least 3 independent experiments were performed. One-way ANOVA with post-hoc testing were used for data analysis with GraphPad Prism software (GraphPad, San Diego, CA). If normality test failed, nonparametric Kruskal-Wallis test followed by Dunn's post-hoc test were used. P > 0.05 was not considered significant.

Another assay relates to U937 cells / HUVECs. Description: Monocyte U937 adhesion to HUVECs. The class given is cell-based, human. To be noted: HUVECs treated with 10 ng/ml TNF-α; calcein-AM U937 5x10^5 cells/well, 30 minutes at 37°C; fluorescence 485/535; mean ± SD. As to the method: as §1

For “GLNGENQKEPEQGERGEAGPPLSGLSGNNQGRPSLPGLNGENQKEPEQGERGEAGPP [R1R2]”, the “ICAM-1 expression on HUVECs” value with ICAM-1 was “significantly decreased; also recorded: transient and detected earlier than the effect on VCAM-1 expression”. The “collagen content, hydroxyproline assay” value with collagen is 1.522 ± 0.077. Moreover, the “U937 adhesion to HUVECs” value in the assay on U937 cells / HUVECs was 197697 ± 34184 cells per cm^2.
